Experimental data: patent US11571423B2, “Small molecule modulators of human sting” (Curadev Pharma Limited, priority 2017, dated 2023)

target: hSTING(R232) (Homo sapiens, UniProt Q86WV6, H232R); experiment: Luciferase reporter assay in HEK293T-hSTING-Luciferase cells, R232 (wild type) human STING; format: cell-based; conditions: 20 hr stimulation, read-out: R232 human activity (EC50 range)
Source text: Stable Cell Line Generation • a) Stable STING expressing cells—Stable HEK293T STING-expressing cell lines were generated using plasmids purchased from Invivogen, CA, USA, that contain STING cDNA cloned into the pUNO-1 vector under hEF1-HTLV promoter and containing the Blasticidin selection cassette. The plasmids hSTING(R232), hSTING(H232), hSTING(HAQ) were directly procured from Invivogen while hSTING (AQ) and hSTING (Q) were derived from hSTING(HAQ) and hSTING (R232) plasmids respectively by using a PCR based site directed mutagenesis method. These vectors were individually transfected into HEK293T cells using Lipofectamine (Invitrogen) and transfected cells were selected under Blasticidin selection. These transfected cells were further subjected to clonal selection using the limiting dilution method to obtain clonally pure populations of HEK cells transfected with each of the above mentioned human STING variants. Only those clones were selected in which ligand independent activation of STING was minimal. • b) Stable Luciferase reporter gene expressing cells—Stable HEK293T Luciferase reporter gene expressing cell lines were generated using pCDNA4 plasmids under an IRF-inducible promoter. This promoter is comprised of five tandem interferon-stimulated response elements (ISRE) fused to an ISG54 minimal promoter. This vector was transfected into HEK293T cells using Lipofectamine (Invitrogen) and transfected cells were selected under Zeocin selection. These transfected cells were further subjected to clonal selection using the limiting dilution method to obtain clonally pure populations of HEK cells transfected the Luciferase reporter construct. Only those clones were selected in which ligand independent induction of luciferase was minimal.
5×10^5 clonally selected HEK293T-hSTING-Luciferase cells were seeded in 384-well plates in growth medium and stimulated with novel compounds. After 20 hr of stimulation supernatant were removed and secretary reporter gene activity were measured using the Quanti-Luc detection system (Invivogen) on a Spectramax i3X luminometer.
In the tables below, EC50 value ranges for exemplary compounds are given.
All compounds were first tested in a primary screen to obtain a ‘fold-induction’ over baseline levels of protein activity.

Chain of hSTING(R232) (Q86WV6 whole entry H232R): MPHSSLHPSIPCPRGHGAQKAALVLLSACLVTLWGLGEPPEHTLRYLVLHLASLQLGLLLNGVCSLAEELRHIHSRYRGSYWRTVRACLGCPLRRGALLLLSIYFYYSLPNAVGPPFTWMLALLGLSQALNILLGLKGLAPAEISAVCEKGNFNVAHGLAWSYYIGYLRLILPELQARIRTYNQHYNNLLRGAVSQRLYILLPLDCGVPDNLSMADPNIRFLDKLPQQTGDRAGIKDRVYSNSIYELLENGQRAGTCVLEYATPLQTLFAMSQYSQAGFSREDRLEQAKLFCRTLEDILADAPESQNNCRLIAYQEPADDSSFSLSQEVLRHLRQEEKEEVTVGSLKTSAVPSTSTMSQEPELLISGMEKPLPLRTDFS

SMILES	EC50
CN1Cc2ccc(C(=O)NCc3ccc(F)cc3F)cc2N(Cc2cc(F)cc(F)c2)C1=O [Example 4, N-(2,4-difluorobenzyl)-1-(3,5-difluorobenzyl)-3-methyl-2-oxo-1,2,3,4-tetrahydroquinazoline-7-carboxamide]	< 1000 nM
Cc1cccc(CN2C(=O)N(C)Cc3ccc(C(=O)NCc4c(F)cc(F)cc4F)cc32)c1F [Example 13, 1-(2-fluoro-3-methylbenzyl)-3-methyl-2-oxo-N-(2,4,6-trifluorobenzyl)-1,2,3,4-tetrahydroquinazoline-7-carboxamide]	< 1000 nM
CC1c2ccc(C(=O)NCc3c(F)cc(F)cc3F)cc2N(Cc2ccc(F)cc2Cl)C(=O)N1C (stereo not shown) [Example 221, 1-(2-chloro-4-fluorobenzyl)-3,4-dimethyl-2-oxo-N-(2,4,6-trifluorobenzyl)-1,2,3,4-tetrahydroquinazoline-7-carboxamide]	< 1000 nM
CN1Cc2ccc(C(=O)NCc3c(F)cc(F)cc3F)cc2N(Cc2ccc(F)cc2)C1=O [Example 6, 1-(4-fluorobenzyl)-3-methyl-2-oxo-N-(2,4,6-trifluorobenzyl)-1,2,3,4-tetrahydroquinazoline-7-carboxamide]	< 1000 nM
C[C@H]1c2ccc(C(=O)NCc3c(F)cc(F)cc3F)cc2N(Cc2c(F)ccc(OCCCOP(=O)(O)O)c2F)C(=O)N1C [Example 104, (S)-3-(3-((3,4-dimethyl-2-oxo-7-((2,4,6-trifluorobenzyl)carbamoyl)-3,4-dihydroquinazolin-1(2H)-yl)methyl)-2,4-difluorophenoxy)propyl dihydrogen phosphate]	< 1000 nM
CN1Cc2ccc(C(=O)NCc3cc4cc(O)ccc4o3)cc2N(Cc2c(F)cccc2Cl)C1=O [Example 27, 1-(2-chloro-6-fluorobenzyl)-N-((5-hydroxybenzof uran-2-yl)methyl)-3-methyl-2-oxo-1.2,3,4-tetrahydroquin azoline-7-carboxamide]	1000 to 10000 nM
CC1c2ccc(C(=O)NCc3ccc(OCC(=O)O)cc3)cc2N(Cc2c(F)cccc2Cl)C(=O)N1C (stereo not shown) [Example 240, 2-(4-((1-(2-chloro-6-fluorobenzyl)-3,4-dimethyl-2-oxo-1,2,3,4-tetrahydroquinazoline-7-carboxamido)methyl)phenoxy)acetic acid]	> 10000 nM

Next, values leading:

EC50	SMILES
1000 to 10000 nM	C[C@H]1c2ccc(C(=O)NCc3c(F)cc(F)cc3F)cc2N(Cc2cc(O)c(O)cc2F)C(=O)N1C [Example 274, (S)-1-(2-fluoro-4,5-dihydroxybenzyl)-3,4-dimethyl-2-oxo-N-(2,4,6-trifluorobenzyl)-1,2,3,4-tetrahydroquinazoline-7-carboxamide]
1000 to 10000 nM	CC(=O)Nc1cccc(F)c1CN1C(=O)N(C)C(C)c2ccc(C(=O)NCc3c(F)cc(F)cc3F)cc21 (stereo not shown) [Example 226, 1-(2-acetamido-6-fluorobenzyl)-3,4-dimethyl-2-oxo-N-(2,4,6-trifluorobenzyl)-1,2,3,4-tetrahydroquinazoline-7-carboxamide]
< 1000 nM	CC1c2ccc(C(=O)NCc3c(F)cc(F)cc3F)cc2N(Cc2c(F)cc(Cl)cc2F)C(=O)N1C (stereo not shown) [Example 222, 1-(4-chloro-2,6-difluorobenzyl)-3,4-dimethyl-2-oxo-N-(2,4,6-trifluorobenzyl)-1,2,3,4-tetrahydroquinazoline-7-carboxamide]
> 10000 nM	CN1Cc2ccc(C(=O)NCc3c(F)cc(F)cc3F)cc2N(Cc2cn3ccccc3n2)C1=O [Example 65, 1-(imidazo[1,2-a]pyridin-2-ylmethyl)-3-methyl-2-oxo-N-(2,4,6-trifluorobenzyl)-1,2,3,4-tetrahydroquinazoline-7-carboxamide]
1000 to 10000 nM	O=C(NCc1c(F)cc(F)cc1F)c1ccc2c(c1)N(Cc1cc(F)cc(F)c1)C(=O)NC2 [Example 18, 1-(3,5-difluorobenzyl)-2-oxo-N-(2,4,6-trifluorobenzyl)-1,2,3,4-tetrahydroquinazoline-7-carboxamide]
1000 to 10000 nM	CC1NC(=O)N(Cc2c(F)cccc2Cl)c2cc(C(=O)NCc3c(F)cc(F)cc3F)ccc21 (stereo not shown) [Example 189, 1-(2-chloro-6-fluorobenzyl)-4-methyl-2-oxo-N-(2,4,6-trifluorobenzyl)-1,2,3,4-tetrahydroquinazoline-7-carboxamide]
